Experimental data from patent publication US20080269282A1, “Compounds for Inhibiting Copper-Containing Amine Oxidases and Uses Thereof” (GENMEDICA THERAPEUTICS SL, priority 2004, published 2008).

Target: T1, Human SSAO (Homo sapiens, UniProt Q16853)
T1 construct: Human or mice adipose tissue homogenates, used as a source of SSAO activity; from tissue; host or cells: human adipose tissue homogenate
T1 sequence (Q16853 1-763): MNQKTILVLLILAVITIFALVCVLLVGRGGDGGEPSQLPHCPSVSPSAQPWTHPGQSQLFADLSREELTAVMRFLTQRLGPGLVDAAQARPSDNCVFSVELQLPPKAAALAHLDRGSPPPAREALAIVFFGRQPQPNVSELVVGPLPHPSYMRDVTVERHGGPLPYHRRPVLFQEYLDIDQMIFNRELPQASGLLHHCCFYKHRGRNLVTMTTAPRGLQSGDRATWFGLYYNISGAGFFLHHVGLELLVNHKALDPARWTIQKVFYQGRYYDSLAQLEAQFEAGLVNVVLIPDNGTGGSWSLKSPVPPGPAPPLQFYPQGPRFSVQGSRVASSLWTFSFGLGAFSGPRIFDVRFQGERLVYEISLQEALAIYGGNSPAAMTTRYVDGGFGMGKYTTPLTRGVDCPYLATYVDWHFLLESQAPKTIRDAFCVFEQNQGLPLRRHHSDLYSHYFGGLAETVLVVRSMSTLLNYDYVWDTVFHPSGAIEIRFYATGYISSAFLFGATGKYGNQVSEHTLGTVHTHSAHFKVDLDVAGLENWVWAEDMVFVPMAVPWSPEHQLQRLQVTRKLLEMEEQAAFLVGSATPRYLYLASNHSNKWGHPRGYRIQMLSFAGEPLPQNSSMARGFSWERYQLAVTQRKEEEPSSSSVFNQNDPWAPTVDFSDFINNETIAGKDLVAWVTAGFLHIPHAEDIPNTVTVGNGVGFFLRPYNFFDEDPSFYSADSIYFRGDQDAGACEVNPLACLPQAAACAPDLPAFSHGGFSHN
Test: SSAO activity determination (Amplex Red/HRP detection of H2O2 from benzylamine oxidation)
Type: biochemical
Settings: human adipose tissue homogenate, benzylamine substrate, 37° C., 20 min preincubation
Experimental: SSAO activity determination: All assays were performed at 37° C. with SSAO from human or mice adipose tissue. The enzyme activity was measured through detection of hydrogen peroxide formed by the oxidation of benzylamine. This method is based on the horseradish peroxidase catalyzed hydrogen peroxide oxidation of 10-acetyl-3,7-dihydroxyphenoxazine (Molecular Probes A-6550), that produces resorufin a highly fluorescent product (excitation, 545 nm; emission, 590 nm) (Zhou and Panchuk-Voloshina, 1997). Human or mice adipose tissue homogenates, used as a source of SSAO activity, were preincubated in 96 well microplates for 20 min at 37° C. in 180 μL of 200 mM Phosphate buffer and H2O2-detecting mixture containing horseradish peroxidase (final concentration 1 U/mL) and Amplex Red reagent (60 μM) and different concentrations of inhibitors when necessary. […] Fluorescence intensity of the samples was measured continuously during 1 h (excitation, 545 nm; emission, 590 nm) and H2O2 concentration was calculated from calibration curves generated by serial dilutions of standard H2O2. […]
The inhibition was measured as % decrease of the signal compared to a control without inhibitor. Blank values in absence of substrates were subtracted from the fluorescence for each experimental condition. The IC50 shown in Table 1 were calculated with GraphPad Prism 4 program.

IC50: 0.033 ± 0.006 µM
Compound: Cc1[nH]c2ccccc2c1CC(=O)NCC(=O)NO [compound 4]
